# In article PMC5559473, “Screening of TB Actives for Activity against Nontuberculous Mycobacteria Delivers High Hit Rates” (Frontiers in Microbiology, 2017):
# Where two headings read alike, the source gives them in different places.
# Legend:
# [1] = test system: M. tuberculosis H37Rv; assay: Dose-response growth inhibition (broth microdilution); format: cell-based; details: Mycobacterium tuberculosis, 168 h
# [2] = test system: M. avium 11; assay: Bactericidal assay (CFU, fold kill); format: cell-based, Mycobacterium avium; details: 10^7 CFU/mL exposed to MIC90 for 4 days, CFU vs starting inoculum
# [3] = rat, cited from earlier work; for Cmax: BLQ = < 1 ng/mL
# [4] = test system: M. abscessus Bamboo; assay: Bactericidal assay (CFU, fold kill); format: cell-based, Mycobacterium abscessus; details: for Fold kill at MIC90: 10^7 CFU/mL exposed to MIC90 for 3 days, CFU vs starting inoculum
# [5] = test system: M. abscessus Bamboo; assay: Dose-response growth inhibition (broth microdilution); format: cell-based, Mycobacterium abscessus; details: Mycobacteroides abscessus
# [6] = test system: M. avium 11; assay: as above; format: cell-based, Mycobacterium avium
# [7] = test system: M. tuberculosis; design: method as in http://www.pathogenbox.org/; details: as reported by MMV, ref http://www.pathogenbox.org/; cited from earlier work
# [8] = M. tuberculosis H37Rv, 7 days, concentration that inhibits 50% of growth, read-out: MIC50
# [9] = M. tuberculosis H37Rv, 7 days, concentration that inhibits 90% of growth, read-out: MIC90
# [10] = 72 h, M. abscessus Bamboo, 3 days, read-out: MIC50
# [11] = 72 h, M. abscessus Bamboo, 3 days, read-out: MIC90
# [12] = Mycobacterium avium, 96 h, M. avium 11, 4 days, read-out: MIC50
# [13] = Mycobacterium avium, 96 h, M. avium 11, 4 days, read-out: MIC90
# [14] = IV 1 mg/kg, mean n = 2, ref http://www.pathogenbox.org/
# [15] = PO 5 mg/kg, mean n = 2, ref http://www.pathogenbox.org/
Compound,"MIC50 [1, 8]","MIC90 [1, 9]",Fold kill at MIC90 [2],"AUCinf ([3]; in vivo, iv, 1 mg/kg)","AUClast ([3]; in vivo, iv, 1 mg/kg)","C0 ([3]; in vivo, iv, 1 mg/kg)","Cl ([3]; in vivo, iv, 1 mg/kg)","AUCinf ([3]; in vivo, po, 5 mg/kg)","AUClast ([3]; in vivo, po, 5 mg/kg)","tmax ([3]; in vivo, po, 5 mg/kg)",%F ([3]; in vivo),Fold kill at MIC90 [4],"MIC50 [5, 10]","MIC90 [5, 11]","MIC50 [6, 12]","MIC90 [6, 13]",Reported MIC [7],further results
COc1ccc(OC)c(NCc2ccc3nc(N)nc(N)c3c2Cl)c1 [MMV675968],< 0.2 µM,4 µM,"NK (NK, “no kill,” i.e., CFU reduction < 10-fold at MIC90)",0.9 µg·h/mL,0.897 µg·h/mL,1.08 µg/mL,1.12 L/h/kg,0.532 µg·h/mL,0.504 µg·h/mL,1 h,11%,"NK (NK, “no kill,” i.e., CFU reduction < 10-fold at MIC90)",10.5 µM,35 µM,0.2 µM,3 µM,,
Cc1cc(C)c2cc(C(=O)NC3CCCCCCC3)[nH]c2c1 [MMV687146],< 0.2 µM,< 0.2 µM,"NK (NK, “no kill,” i.e., CFU reduction < 10-fold at MIC90)",0.935 µg·h/mL,0.798 µg·h/mL,2.27 µg/mL,1.09 L/h/kg,0.483 µg·h/mL,0.456 µg·h/mL,0.75 h,11%,100 fold,0.8 µM,2 µM,3 µM,9 µM,<0.024 µM,
CCCCOC(=O)Nc1cc2nc(C3CCCCC3)[nH]c2cc1N1CCCC1 [MMV687730],< 0.2 µM,< 0.2 µM,"NK (NK, “no kill,” i.e., CFU reduction < 10-fold at MIC90)",,,,,,,,,10 fold,4 µM,8.5 µM,5 µM,22 µM,0.05 µM,"AUCinf [3, 14]: 0.125 µg·h/mL; AUClast [3, 14]: 0.108 µg·h/mL; C0 [3, 14]: 0.444 µg/mL; Cl [3, 14]: 9.96 L/h/kg; Vss [3, 14]: 15.9 L/kg; t1/2 [3, 14]: 3.34 h; Cmax [3, 15]: NC (BLQ at all time points)"
CN1CCN(CCCOc2ncc(Nc3ncc(-c4ccc(C(F)(F)F)c(F)c4)nc3C(N)=O)cn2)CC1 [MMV687812],< 0.2 µM,2.2 µM,"NK (NK, “no kill,” i.e., CFU reduction < 10-fold at MIC90)",0.801 µg·h/mL,0.381 µg·h/mL,0.265 µg/mL,1.25 L/h/kg,2.45 µg·h/mL,0.962 µg·h/mL,7 h,50%,,6 µM,> 50 µM,25 µM,> 50 µM,1.2 µM,"Fold kill (Fold kill at MIC90) ([4]; at 12 μM (80% growth inhibition), MIC90 not reached): NK^∧ (NK, “no kill,” i.e., CFU reduction < 10-fold at MIC90); MIC90 ([5]; read-out: Concentration at which 80% growth inhibition was achieved (printed in MIC90 column)): 12 µM"
"CC(=O)NC[C@H]1CN(c2ccc(-c3ccc(CNCc4cnn[nH]4)cc3)c(F)c2)C(=O)O1 [MMV688327, radezolid, reference compound]",0.5 µM,2 µM,"NK (NK, “no kill,” i.e., CFU reduction < 10-fold at MIC90)",,,,,,,,,"NK (NK, “no kill,” i.e., CFU reduction < 10-fold at MIC90)",3.8 µM,13 µM,4 µM,35 µM,0.3 µM,
CC(=O)NCC1CN(c2ccc(-c3ccc(CO)cc3)c(F)c2)C(=O)O1 (stereo not shown) [MMV688508],< 0.2 µM,0.3 µM,"NK (NK, “no kill,” i.e., CFU reduction < 10-fold at MIC90)",0.156 µg·h/mL,0.156 µg·h/mL,1.31 µg/mL,16.8 L/h/kg,,0.00145 µg·h/mL,0.25 h,<1%,"NK (NK, “no kill,” i.e., CFU reduction < 10-fold at MIC90)",2.2 µM,12 µM,0.6 µM,8 µM,0.4 µM,
"CC(=O)NC[C@H]1CN(c2ccc(N3CCSCC3)c(F)c2)C(=O)O1 [MMV688756, sutezolid, reference compound]",< 0.2 µM,1.2 µM,"NK (NK, “no kill,” i.e., CFU reduction < 10-fold at MIC90)",,,,,,,,,"NK (NK, “no kill,” i.e., CFU reduction < 10-fold at MIC90)",4.2 µM,25 µM,0.4 µM,4 µM,1.2 µM,
Cc1ccccc1CN1CCC(O)(c2ccc(Cl)c(C(F)(F)F)c2)CC1 [MMV688846],,,,,,,,,,,,10 fold,,,,,0.4 µM,"MIC50 ([1]; H37RV): 0.2 µM; MIC90 ([1]; H37RV): 0.6 µM; AUCinf [3, 14]: 0.464 µg·h/mL; AUClast [3, 14]: 0.423 µg·h/mL; C0 [3, 14]: 0.563 µg/mL; Cl [3, 14]: 2.21 L/h/kg; Vss [3, 14]: 14.4 L/kg; t1/2 [3, 14]: 9.78 h; %F ([3]; PO 5 mg/kg vs IV 1 mg/kg, ref http://www.pathogenbox.org/): <1%; Cmax [3, 15]: 0.00319 µg/mL; AUCinf [3, 15]: 0.0275 µg·h/mL; AUClast [3, 15]: 0.0181 µg·h/mL; t1/2 [3, 15]: 4.6 h; tmax [3, 15]: 1.5 h; MIC50 ([5]; 72 h): 0.7 µM; MIC90 ([5]; 72 h): 1.5 µM; MIC50 ([6]; Mycobacterium avium, 11, 96 h): 20 µM; IC90 ([6]; Mycobacterium avium, 11, 96 h, read-out: MIC90): > 50 µM"
